Key:
Akt3 = molecular target: T1, Akt3 (Homo sapiens, UniProt Q9Y243); test: Akt activation assay (PDK1-mediated activation, LANCE Ultra crosstide TR-FRET), Akt3; format: biochemical; details: read-out: Biological Assay 1 IC50 (nM) Akt3
T1 construct: unspecified tag, removed (detagged) (cleaved yes); purchased SignalChem and Proteros (Akt3); Merck Millipore (PDK1) 14-452 (PDK1); none given for Akt3
How it was run: (§1)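 Unactivated Akt (5 nM Akt1, 15 or 5 nM Akt2, 3 or 5 nM Akt3, by supplier) preincubated with compound, then activated by 5 nM PDK1 on DOPS/DOPC/PtdIns(3,4,5)P3 vesicles with 100 μM ATP and 100 nM Ulight-crosstide, pH 7.5, 30 min. Eu-anti-phospho-crosstide TR-FRET (665/615 nm); IC50 by 4-parameter fit.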

p-Akt2 in WM115 cells = molecular target: T2, p-Akt2 in WM115 cells (Homo sapiens, UniProt P31751); test: Phospho-Akt cellular SureFire assay, p-Akt2 in WM115 cells; format: cell-based; details: insulin stimulated, read-out: Biological Assay 2 IC50 (nM) Akt2 WM115
T2 construct: SureFire assays to detect cellular p-Akt1, p-Akt2 and p-Akt3 levels in WM115 cells (Akt2/3) and LNCaP cells (Akt1); endogenous in cells; host or cells: WM115 (ECACC 91061232), insulin-stimulated
T2 sequence (P31751 whole entry): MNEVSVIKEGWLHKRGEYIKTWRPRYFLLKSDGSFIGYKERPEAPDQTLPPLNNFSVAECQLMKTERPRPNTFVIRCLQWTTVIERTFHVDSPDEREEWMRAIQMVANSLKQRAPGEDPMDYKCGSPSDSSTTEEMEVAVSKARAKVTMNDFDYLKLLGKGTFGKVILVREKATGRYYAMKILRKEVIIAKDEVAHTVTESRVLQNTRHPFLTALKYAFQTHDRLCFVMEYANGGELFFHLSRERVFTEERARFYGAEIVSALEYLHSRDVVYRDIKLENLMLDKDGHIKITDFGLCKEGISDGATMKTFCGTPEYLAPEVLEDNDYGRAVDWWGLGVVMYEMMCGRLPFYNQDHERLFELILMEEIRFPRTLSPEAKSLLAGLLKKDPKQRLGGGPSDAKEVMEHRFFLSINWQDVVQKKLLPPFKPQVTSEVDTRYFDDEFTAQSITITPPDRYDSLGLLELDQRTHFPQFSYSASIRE
How it was run: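 WM115 cells in 0.1% FBS medium stimulated 10 min with 100 nM insulin, then exposed to compound for 15 min at 37° C (0.3% DMSO final). Lysates assayed by AlphaScreen with anti-(pThr308)Akt and isoform-specific total Akt2 antibodies; IC50 from 4-parameter fit.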

p-Akt3 in WM115 cells = molecular target: T3, p-Akt3 in WM115 cells (Homo sapiens, UniProt Q9Y243); test: Phospho-Akt cellular SureFire assay, p-Akt3 in WM115 cells; format: cell-based; details: insulin stimulated, read-out: Biological Assay 2 IC50 (nM) Akt3 WM115
T3 construct: SureFire assays to detect cellular p-Akt1, p-Akt2 and p-Akt3 levels in WM115 cells (Akt2/3) and LNCaP cells (Akt1); endogenous in cells; host or cells: WM115 (ECACC 91061232), insulin-stimulated
T3 sequence (Q9Y243 whole entry): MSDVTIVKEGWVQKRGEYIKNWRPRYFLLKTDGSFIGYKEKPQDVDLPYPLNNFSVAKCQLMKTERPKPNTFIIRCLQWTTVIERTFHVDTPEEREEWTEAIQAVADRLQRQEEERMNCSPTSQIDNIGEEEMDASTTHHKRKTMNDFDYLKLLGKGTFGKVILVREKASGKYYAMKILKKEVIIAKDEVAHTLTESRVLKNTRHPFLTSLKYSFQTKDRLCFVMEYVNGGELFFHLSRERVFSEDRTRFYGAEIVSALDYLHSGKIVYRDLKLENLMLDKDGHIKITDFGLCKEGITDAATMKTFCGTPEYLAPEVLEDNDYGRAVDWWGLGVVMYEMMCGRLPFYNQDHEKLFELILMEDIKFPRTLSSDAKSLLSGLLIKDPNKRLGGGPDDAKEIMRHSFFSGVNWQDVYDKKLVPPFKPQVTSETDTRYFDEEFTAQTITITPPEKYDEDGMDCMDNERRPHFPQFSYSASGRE
How it was run: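 WM115 cells were serum-reduced to 0.1% FBS, stimulated with 100 nM insulin for 10 min, then exposed to compound (0.3% DMSO) for 15 min at 37 °C. Lysates were assayed for Thr308-phosphorylated Akt3 by AlphaScreen SureFire using an isoform-specific total Akt3 capture antibody. IC50 was derived from a 4-parameter fit.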

Akt1 = molecular target: T4, Akt1 (Homo sapiens, UniProt P31749); test: Akt activation assay (PDK1-mediated activation, LANCE Ultra crosstide TR-FRET), Akt1; format: biochemical; details: read-out: Biological Assay 1 IC50 (nM) Akt1
T4 construct: unspecified tag, removed (detagged) (cleaved yes); purchased SignalChem and Proteros (Akt1); Merck Millipore (PDK1) 14-452 (PDK1); none given for Akt1
T4 sequence (P31749 whole entry): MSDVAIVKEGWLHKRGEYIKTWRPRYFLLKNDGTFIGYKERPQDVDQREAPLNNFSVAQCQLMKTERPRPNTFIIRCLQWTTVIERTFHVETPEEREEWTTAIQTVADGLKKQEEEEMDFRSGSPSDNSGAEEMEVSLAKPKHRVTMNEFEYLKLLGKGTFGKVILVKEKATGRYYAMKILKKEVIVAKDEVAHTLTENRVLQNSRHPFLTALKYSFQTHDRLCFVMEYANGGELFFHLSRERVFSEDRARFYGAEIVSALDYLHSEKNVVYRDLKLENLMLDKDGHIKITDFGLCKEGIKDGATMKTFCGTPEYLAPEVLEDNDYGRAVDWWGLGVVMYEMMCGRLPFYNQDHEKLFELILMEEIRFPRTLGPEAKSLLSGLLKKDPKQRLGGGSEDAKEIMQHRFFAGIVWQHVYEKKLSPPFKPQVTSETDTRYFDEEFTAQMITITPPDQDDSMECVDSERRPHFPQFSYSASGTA
How it was run: as §1

Akt2 = molecular target: T5, Akt2 (Homo sapiens, UniProt P31751); test: Akt activation assay (PDK1-mediated activation, LANCE Ultra crosstide TR-FRET), Akt2; format: biochemical; details: read-out: Biological Assay 1 IC50 (nM) Akt2
T5 construct: unspecified tag, removed (detagged) (cleaved yes); purchased SignalChem and Proteros (Akt2); Merck Millipore (PDK1) 14-452 (PDK1); none given for Akt2
T5 sequence (P31751 whole entry): as the sequence (P31751 whole entry) above
How it was run: as §1

p-Akt1 in LNCaP cells = molecular target: T6, p-Akt1 in LNCaP cells (Homo sapiens, UniProt P31749); test: Phospho-Akt cellular SureFire assay, p-Akt1 in LNCaP cells; format: cell-based; details: read-out: Biological Assay 2 IC50 (nM) Akt1 LNCaP
T6 construct: SureFire assays to detect cellular p-Akt1, p-Akt2 and p-Akt3 levels in WM115 cells (Akt2/3) and LNCaP cells (Akt1); endogenous in cells; host or cells: LNCaP (ECACC 89110211)
T6 sequence (P31749 whole entry): as the sequence (P31749 whole entry) above
From the text: Biological Assay 2: Phospho-Akt (p-Akt) Cellular SureFire Assays
The following describes SureFire assays to detect cellular p-Akt1, p-Akt2 and p-Akt3 levels in WM115 cells (Akt2/3) and LNCaP cells (Akt1). In the case of Akt2 and Akt3, Streptavidin-coated donor beads capture a biotinylated anti-mouse antibody that in turn recognises a mouse total Akt antibody which is specific to each isoform. The protein A-conjugated acceptor beads capture an antibody that recognises the phosphoprotein. Similarly in the Akt1 kit, the donor and acceptor beads are used to capture each antibody pair consisting of an antibody that specifically recognises Akt1 as well as an antibody that recognises the phosphoprotein. In each case, close proximity of the beads allows energy transfer from donor to acceptor.
AlphaScreen® SureFire™ Phospho-Akt1 (pThr308) Kit from Perkin Elmer (TGRA2S10K)
LNCaP cells (ECACC, 89110211) cultured in RPMI-1640 culture media (Fisher, 10665193) supplemented with 2 mM L-glutamine, 1% sodium pyruvate and 10% FBS
Cell treatment: 1×10^5 WM115 cells or 5×10^4 LNCaP cells were seeded into each well of a 96 well poly-D-Lysine coated tissue culture plate and incubated overnight at 37° C.+5% CO2. Media was removed from cells and replaced with assay buffer consisting of the full culture media described above but with 0.1% FBS instead of 10% FBS. Only WM115 cells were stimulated at 37° C.+5% CO2 for 10 min with 5 μL insulin at a final concentration of 100 nM. Cells were incubated with 5 μL of test compound at a final DMSO concentration of 0.3% for 15 min at 37° C.+5% CO2. Cell lysis was carried out according to kit instructions.
Assay format (performed in subdued lighting): 4 μL cell lysate and 5 μL reaction buffer were incubated together in the dark at room temperature for 2 h. Reaction buffer was supplemented with a 1/5 dilution of activation buffer, a 1/50 dilution of acceptor beads and in the case of the custom kits, antibodies were added at dilutions of 1/20,000 for Akt2 and 1/2,000 for Akt3.
2 μL dilution buffer, supplemented with a 1/20 dilution of donor beads was added to each well and incubated for a further 2 h. Plates were read with the EnVision® Multilabel Plate Reader and using the AlphaScreen settings. Compound IC50 was determined using a 4-parameter equation.

T1 sequence (Q9Y243 whole entry): as the sequence (Q9Y243 whole entry) above

IC50 (Akt3) [nM]	IC50 (p-Akt2 in WM115 cells) [nM]	IC50 (p-Akt3 in WM115 cells) [nM]	IC50 (Akt1) [nM]	IC50 (Akt2) [nM]	IC50 (p-Akt1 in LNCaP cells) [nM]	Compound
740	7000	390	> 30000	3300	> 30000	CN([C@H]1CC[C@H](CC(=O)Nc2cnc(-c3ccc(C(C)(C)N)cc3)c(-c3ccccc3F)c2)CC1)S(C)(=O)=O [Example A26, N-(6-(4-(2-aminopropan-2-yl)phenyl)-5-(2-fluorophenyl)pyridin-3-yl)-2-(trans-4-(N-methylmethylsulfonamido)cyclo-hexyl)acetamide]
99	12000	400	> 30000	5500	> 23000	CN(C(=O)C1CCC1)[C@H]1CC[C@H](CC(=O)Nc2cc(-c3ccccc3)c(-c3ccc(C(C)(C)N)cc3)nn2)CC1 [Example A87, N-(trans-4-(2-((6-(4-(2-aminopropan-2-yl)phenyl)-5-phenylpyridazin-3-yl)amino)-2-oxoethyl)cyclohexyl)-N-methylcyclobutanecarboxamide]
120	4400	200	> 30000	3600	> 30000	CC(C)(N)c1ccc(-c2cnc(NC(=O)C[C@H]3CC[C@H](N4CCCC4=O)CC3)cc2-c2ccccc2)cc1 [Example A49, N-(5-(4-(2-aminopropan-2-yl)phenyl)-4-phenylpyridin-2-yl)-2-(trans-4-(2-oxopyrrolidin-1-yl)cyclohexyl)acetamide]
29	2200	140	> 13000	1200	> 30000	CC(C)C(=O)N(C)[C@H]1CC[C@H](CC(=O)Nc2cc(-c3ccccc3)c(-c3ccc(C4(N)CC4)cc3)nn2)CC1 [Example A92, N-(trans-4-(2-((6-(4-(1-aminocyclopropyl)phenyl)-5-phenylpyridazin-3-yl)amino)-2-oxoethyl)cyclohexyl)-N-methylisobutyramide]
2600	12000	480	> 30000	–	> 30000	COC(=O)N(C)[C@H]1CC[C@H](C(C)C(=O)Nc2cnc(-c3ccc(C(C)(C)N)cc3)c(-c3ccccc3)c2)CC1 (stereo partly drawn) [Example A45, Methyl (trans-4-(1-((6-(4-(2-aminopropan-2-yl)phenyl)-5-phenylpyridin-3-yl)amino)-1-oxopropan-2-yl)cyclohexyl)(methyl)carbamate]
22	3000	160	–	210	11000	CC(C)OC(=O)N(C)[C@H]1CC[C@H](CC(=O)Nc2cc(-c3ccccc3)c(-c3ccc([C@]4(N)C[C@](C)(O)C4)cc3)cn2)CC1 [Example A74, Isopropyl (trans-4-(2-((5-(4-(trans-1-amino-3-hydroxy-3-methylcyclobutyl)phenyl)-4-phenylpyridin-2-yl)amino)-2-oxoethyl)cyclohexyl)(methyl)carbamate]
750	23000	1700	–	11000	> 30000	COC(=O)N[C@H]1CC[C@H](CC(=O)Nc2cc(-c3ccccc3)c(-c3ccc(C4(N)CC4)c(F)c3)cn2)CC1 [Example A106, Methyl (trans-4-(2-((5-(4-(1-aminocyclopropyl)-3-fluorophenyl)-4-phenylpyridin-2-yl)amino)-2-oxoethyl)cyclohexyl)carbamate]
22	15000	670	–	630	> 30000	COC(=O)N(C)[C@H]1CC[C@H](CC(=O)Nc2cc(-c3ccccc3)c(-c3ccc([C@]4(N)C[C@H](F)C4)cc3)nn2)CC1 [Example A60, Methyl (trans-4-(2-((6-(4-(trans-1-amino-3-fluorocyclobutyl)phenyl)-5-phenylpyridazin-3-yl)amino)-2-oxoethyl)cyclohexyl)(methyl)carbamate]

Second part, the molecule before the results:

Compound	IC50 (Akt3) [nM]	IC50 (p-Akt2 in WM115 cells) [nM]	IC50 (p-Akt3 in WM115 cells) [nM]	IC50 (Akt1) [nM]	IC50 (Akt2) [nM]	IC50 (p-Akt1 in LNCaP cells) [nM]
CN(C(=O)C1CC1)[C@H]1CC[C@H](CC(=O)Nc2cnc(-c3ccc(C(C)(C)N)cc3)c(-c3ccsc3)c2)CC1 [Example 27, N-(trans-4-(2-((6-(4-(2-aminopropan-2-yl)phenyl)-5-(thiophen-3-yl)pyridin-3-yl)amino)-2-oxoethyl)cyclohexyl)-N-methylcyclopropanecarboxamide]	680	10000	380	> 30000	12000	> 30000
CC(=O)NC1CCC(CC(=O)Nc2cnc(-c3ccc([C@]4(N)C[C@](C)(O)C4)cc3)c(-c3ccccc3)c2)CC1 (stereo partly drawn) [Example 2, 2-(trans-4-acetamidocyclohexyl)-N-(6-(4-(trans-1-amino-3-hydroxy-3-methylcyclobutyl)phenyl)-5-phenylpyridin-3-yl)acetamide]	20	4400	150	980	94	8700
CCC(=O)N(C)[C@H]1CC[C@H](CC(=O)Nc2cc(-c3ccsc3)c(-c3ccc([C@]4(N)C[C@](C)(O)C4)cc3)cn2)CC1 [Example 110, N-(trans-4-(2-((5-(4-(trans-1-amino-3-hydroxy-3-methylcyclobutyl)phenyl)-4-(thiophen-3-yl)pyridin-2-yl)amino)-2-oxoethyl)cyclohexyl)-N-methylpropionamide]	17	1200	16	–	380	8800
COC(=O)N[C@H]1CC[C@H](CC(=O)Nc2cc(-c3ccccc3)c(-c3ccc([C@]4(N)C[C@](C)(O)C4)cc3)cn2)CC1 [Example 103, Methyl (trans-4-(2-((5-(4-(trans-1-amino-3-hydroxy-3-methylcyclobutyl)phenyl)-4-phenylpyridin-2-yl)amino)-2-oxoethyl)cyclohexyl)carbamate]	11	390	15	–	78	2600
CC(=O)N[C@H]1CC[C@H](C(C)C(=O)Nc2cnc(-c3ccc(C4(N)CCC4)cc3)c(-c3ccccc3)c2)CC1 (relative stereo) [Example 41, 2-(trans-4-acetamidocyclohexyl)-N-(6-(4-(1-aminocyclobutyl)phenyl)-5-phenylpyridin-3-yl)propanamide]	170	1500	130	–	240	> 30000

— patent US10336702B2, “Pharmaceutically active compounds” (BERGENBIO ASA, priority 2015, dated 2019)
